Patent publication EP0348967A2, “Synthetic lung surfactant preparation comprising lipids and polypeptides” (MERRELL PHARMACEUTICALS INC., priority 1988, dated 1990)

Tested on: adult rat lung
Assay: adult rat lung model (pressure-volume curve, lung compliance)
Type: in vivo
Details: pressure-volume curves (Figs. 1 and 2), three ml of the preparations of Examples 1 and 2 tested
Protocol: The synthetic surfactant preparations were tested in the adult rat lung model (Ikegami, et al., (1979) Pediatr. Res. 13, 777-780). Reference I and Reference II, consisting of DPPC, alone and dog lung surfactant, respectively, were employed as reference standards. Three ml of the preparations from each of examples 1 and 2 were tested in an adult rat lung model. […] Results are illustrated in Figures 1 and 2.

**Q.** With `CCCCCCCCCCCCCCCC(=O)OC[C@H](COP(=O)([O-])OCC[N+](C)(C)C)OC(=O)CCCCCCCCCCCCCCC` [Reference I, dipalmitoylphosphatidylcholine] as the molecule, how does the “compliance of the rat lung” value read?
**A.** no effect
